Assay results: patent publication US11827664B2, “Biaryl amides with modified sugar groups for treatment of diseases associated with heat shock protein pathway” (REATA PHARMACEUTICALS, INC., priority 2018, dated 2023)

How the values were obtained:
[1] = test system: diabetic mice; conditions: cited from earlier work
[2] = test system: neurons; conditions: cited from earlier work; for effect on mitochondrial function / bioenergetics: neurons
[3] = test system: neurons; conditions: in vitro; cited from earlier work
[4] = Stability in acidic medium, monitored by HPLC; type: physicochemical; conditions: 0.1 N aq. HCl/MeOH (2/1 v/v), room temperature
Procedure: A sample of a test compound (1.2 mg) was dissolved in 0.1 N aq. HCl/MeOH (2/1 v/v, 4 mL) at room temperature. The degradation of the test compound was monitored by HPLC. The percentage of the test compound remaining was calculated using the peak area % in HPLC.

[5] = test system: rat streptozotocin induced diabetes model for painful diabetic neuropathy; assay: Streptozotocin-induced rat model of painful diabetic neuropathy, Von Frey measurement for allodynia; type: in vivo; conditions: STZ 60 mg/kg IV, oral QD dosing started on Day 10
Procedure: A streptozotocin-induced rat model was used to test the effectiveness of KU-596 (T0) and several of the instant compounds in a model of painful diabetic neuropathy. The study rats were allowed to accliminate to the Von Frey apparatus for one day prior to the initial Von Frey measurement. A baseline Von Frey measurement, a body weight measurement, and blood glucose level measurements were conducted one day before the intravenous administration of streptozotocin to induce diabetes. […] Each of the animals in a treatment group was dosed with either the vehicle or a therapeutic agent orally. Treatment was continued until euthanasia approximately one to two weeks later.
Streptozotocin was injected into rats to induce diabetes after a baseline Von Frey measurement for allodynia was collected. Oral administration of each test drug (Compound T0 (KU-596), FIG. 1A; Compound T2, FIG. 1B, and Compound T1, FIG. 1C) was started on Day 10 after another Von Frey measurement.

[6] = biological target: Hsp90 C-terminus nucleotide binding pocket; conditions: low affinity; Marcu, et al., 2000; cited from earlier work
[7] = 22 hours (footnote *, printed in the 24 h line)

SMILES | effect on symptoms of DPN / neuropathy in diabetic mice [1] | effect on mitochondrial function / bioenergetics [2] | protection of neurons from hyperglycemic conditions [3] | effect on expression of inflammatory markers ([2]; diabetic neurons) | percentage of test compound remaining (HPLC peak area %) ([4]; 0 h) [%] | percentage of test compound remaining (HPLC peak area %) ([4]; 4 h) [%] | percentage of test compound remaining (HPLC peak area %) ([4]; 8 h) [%] | percentage of test compound remaining (HPLC peak area %) ([4]; 12 h) [%] | percentage of test compound remaining (HPLC peak area %) ([4]; 16 h) [%] | percentage of test compound remaining (HPLC peak area %) ([4]; 20 h) [%] | percentage of test compound remaining (HPLC peak area %) ([4]; 24 h) [%] | activity in model of painful diabetic neuropathy relative to T0 (KU-596), Von Frey measurement [5] | percentage of test compound remaining (HPLC peak area %) [4, 7] | IC50 [6] [µM]
CO[C@@H]1[C@@H](O)[C@@H](O)[C@H](Oc2ccc3cc(NC(C)=O)c(=O)oc3c2C)OC1(C)C [KU-32] | significant activity in reversing established symptoms of DPN in diabetic mice | improve mitochondrial bioenergetics | – | – | – | – | – | – | – | – | – | – | – | –
CO[C@@H]1[C@@H](O)[C@@H](O)C(Oc2ccc(CCNC(C)=O)c(-c3cccc(F)c3)c2)OC1(C)C (stereo partly drawn) [KU-596, N-(2-(5-(((3R,4S,5R)-3,4-dihydroxy-5-methoxy-6,6-dimethyltetra-hydro-2H-pyran-2-yl)oxy)-3′-fluoro-[1,1′-biphenyl]-2-yl)ethyl)-acetamide] | alleviate symptoms of neuropathy in diabetic mice | improve impaired mitochondrial function in neurons | protect neurons from hyperglycemic conditions in vitro | reduce the expression of inflammatory markers in diabetic neurons | – | – | – | – | – | – | – | – | – | –
CO[C@@H]1[C@@H](O)[C@@H](O)[C@H](Oc2ccc(CCNC(C)=O)c(-c3cccc(F)c3)c2)OC1(C)C [T0, reference compound] | – | – | – | – | 100.0 | 96.7 ± 1.4 | 93.4 ± 1.7 | 90.5 ± 2.3 | 87.3 ± 2.9 | 83.9 ± 4.1 | 81.8 ± 4.2 | – | – | –
CC(=O)NCCc1ccc(O[C@@H]2O[C@@H](C)[C@H](O)[C@@H](O)[C@H]2O)cc1-c1cccc(F)c1 [T1] | – | – | – | – | 100.0 | 101.1 | 100.1 | 100.5 | 100.4 | 100.3 | 100.4 | comparable to slightly better activity | – | –
CO[C@@H]1[C@@H](O)[C@@H](O)[C@H](Oc2ccc(CCNC(C)=O)c(-c3cccc(F)c3)c2)O[C@H]1C [T2] | – | – | – | – | 100.0 | 99.9 | 99.5 | 99.8 | 100.2 | 99.9 | – | comparable to slightly better activity | 100.2* % | –
CC(=O)NCCc1ccc(O[C@@H]2OC(C)(C)[C@H](O)[C@@H](O)[C@H]2O)cc1-c1cccc(F)c1 [T3] | – | – | – | – | 100.0 | 98.1 | 96.1 | 94.1 | 92.2 | 90.2 | 88.3 | – | – | –
CC(=O)NCCc1ccc(O[C@@H]2OC(C)(C)[C@H](OC(F)F)[C@@H](O)[C@H]2O)cc1-c1cccc(F)c1 [T6] | – | – | – | – | 100.0 | 99.1 | 99.0 | 97.6 | 96.6 | 96.0 | 95.7 | – | – | –
CC(=O)NCCc1ccc(O[C@@H]2OC(C)(C)[C@H](OCc3ccccc3)[C@@H](O)[C@H]2O)cc1-c1cccc(F)c1 [T7] | – | – | – | – | 100.0 | 93.3 | 85.6 | 78.8 | 71.5 | 65.5 | 61.7 | – | – | –
CNC(=O)CCc1ccc(O[C@@H]2O[C@@H](C)[C@H](OC)[C@@H](O)[C@H]2O)cc1-c1cccc(F)c1 [T11] | – | – | – | – | 100.0 | 100.2 | 100.3 | 100.6 | 100.9 | 101.4 | 102.1 | – | – | –
CO[C@@H]1[C@@H](O)[C@@H](O)[C@H](Oc2ccc(C(F)(F)CNC(C)=O)c(-c3cccc(F)c3)c2)OC1(C)C [T12] | – | – | – | – | 100.0 | 97.2 | 95.5 | 93.7 | 92.3 | 90.6 | – | – | 89.9* % | –
CO[C@@H]1[C@@H](O)[C@@H](O)[C@H](Oc2ccc(C(F)(F)CNC(C)=O)c(-c3cccc(F)c3)c2)O[C@H]1C [T13] | – | – | – | – | 100.0 | 99.3 | 99.7 | 100.3 | 99.5 | 99.7 | 99.3 | – | – | –
CC(=O)NCCc1ccc(O[C@@H]2O[C@@H](C)[C@@H](O)[C@@H](O)[C@@H]2O)cc1-c1cccc(F)c1 [T15] | – | – | – | – | 100.0 | 99.9 | 99.0 | 98.5 | 97.9 | 97.0 | 96.5 | – | – | –
CO[C@@H]1[C@@H](O)[C@@H](O)[C@@H](Oc2ccc(CCNC(C)=O)c(-c3cccc(F)c3)c2)OC1(C)C [T20] | – | – | – | – | 100.0 | 97.7 | 94.8 | 91.9 | 89.2 | 86.8 | 84.4 | – | – | –
CC(=O)NCCc1ccc(O[C@H]2O[C@H](C)[C@@H](O)[C@H](O)[C@@H]2O)cc1-c1cccc(F)c1 [T54] | – | – | – | – | 100.0 | 100.4 | 100.2 | 101.0 | 101.1 | 101.3 | 101.2 | – | – | –
CNC(=O)CCc1ccc(O[C@@H]2OC(C)(C)[C@H](OC)[C@@H](O)[C@H]2O)cc1-c1cccc(F)c1 [T57] | – | – | – | – | 100.0 | 97.9 | 93.4 | 90.3 | 86.4 | 82.5 | 79.3 | – | – | –
CC(=O)NCCc1ccc(O[C@@H]2O[C@@H](CO)[C@H](O)[C@@H](O)[C@H]2O)cc1-c1cccc(F)c1 [T60] | – | – | – | – | 100.0 | 97.6 | 97.6 | 97.5 | 97.2 | 98.0 | 97.4 | – | – | –
CO[C@@H]1[C@@H](OC(N)=O)[C@@H](O)[C@H](Oc2ccc3c(O)c(NC(=O)c4ccc(O)c(CC=C(C)C)c4)c(=O)oc3c2C)OC1(C)C [novobiocin] | – | – | – | – | – | – | – | – | – | – | – | – | – | ~700
